Measured values published in PubChem BioAssay AID276 (DTP/NCI, 2004).
Several values for one entry are separate records, joined by “and”; a condition that tells them apart may be missing. Equal entries are not always repeated. Toxic doses and inconclusive results are not listed. Residues, ends and D or L forms follow the SMILES beside them. *: point of attachment. Trt = c1ccc(C(c2ccccc2)(c2ccccc2)*)cc1; Cbz = O=C(OCc1ccccc1)*; Bn = c1ccc(C*)cc1; βAla = NCCC(=O)O

Test system: B6C3F1 mice, Lewis lung carcinoma iv, survival T/C
Experiment: NCI In Vivo Anticancer Drug Screen. Data for tumor model Lewis Lung Carcinoma (intravenous) in B6C3F1 mice
Conditions: endpoint: median survival time, schedule: Q01DX009 (ip), higher = longer survival
Procedure, shortened: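 Mice carrying transplanted tumors received test compound; survival in the treated group was divided by that of the vehicle-treated control group to give the T/C value.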

[1] = dose: 12.5 mg/kg/injection, vehicle: saline
[2] = dose: 25.0 mg/kg/injection, vehicle: saline
[3] = dose: 100.0 mg/kg/injection, vehicle: saline
[4] = dose: 200.0 mg/kg/injection, vehicle: saline
[5] = dose: 12.5 mg/kg/injection, vehicle: saline with Tween-80
[6] = dose: 25.0 mg/kg/injection, vehicle: saline with Tween-80
[7] = dose: 50.0 mg/kg/injection, vehicle: saline with Tween-80
[8] = dose: 100.0 mg/kg/injection, vehicle: saline with Tween-80
[9] = dose: 200.0 mg/kg/injection, vehicle: saline with Tween-80
[10] = dose: 400.0 mg/kg/injection, vehicle: saline with Tween-80
[11] = dose: 3.12 mg/kg/injection, vehicle: saline with Tween-80
[12] = dose: 6.25 mg/kg/injection, vehicle: saline with Tween-80
[13] = dose: 50.0 mg/kg/injection, vehicle: Klucel (hydroxypropylcellulose) (HPC)
[14] = dose: 100.0 mg/kg/injection, vehicle: Klucel (hydroxypropylcellulose) (HPC)
[15] = dose: 200.0 mg/kg/injection, vehicle: Klucel (hydroxypropylcellulose) (HPC)
[16] = dose: 400.0 mg/kg/injection, vehicle: Klucel (hydroxypropylcellulose) (HPC)
[17] = dose: 50.0 mg/kg/injection, vehicle: saline
[18] = dose: 6.25 mg/kg/injection, vehicle: saline
[19] = dose: 25.0 mg/kg/injection, vehicle: Klucel (hydroxypropylcellulose) (HPC)
[20] = dose: 400.0 mg/kg/injection, vehicle: saline
[21] = dose: 800.0 mg/kg/injection, vehicle: saline

With O=C(O)CC(NC(=O)CP(=O)(O)O)C(=O)O (configuration not stated) the T/C [1] was 99 % of control, the T/C [2] was 103 % of control and the T/C [3] was 158 % of control. For the same compound, the T/C [4] was 187 % of control.

O=C(Nc1ccccc1)c1c(O)[nH]c(=S)[nH]c1=O was tested, and the T/C [5] was 103 % of control, the T/C [6] was 106 % of control and the T/C [7] was 115 % of control.

For CC(C#N)(C#N)N=Nc1ccc(Cl)cc1Cl, the T/C [5] was 98 % of control, the T/C [6] was 104 % of control and the T/C [7] was 109 % of control. For the same compound, the T/C [8] was 110 % of control, the T/C [9] was 106 % of control and the T/C [10] was 104 % of control.

For Nc1cc2c3c(cccc3c1)C(=O)N(CCN1CCCC1)C2=O, the T/C [11] was 105 % of control, the T/C [12] was 105 % of control and the T/C [5] was 105 % of control. For the same compound, the T/C [6] was 109 % of control.

With COC(=O)C(CSC(c1ccccc1)(c1ccccc1)c1ccccc1)NC(=O)C(CSCc1ccccc1)NC(=O)CCNC(=O)OCc1ccccc1 (configuration not stated) ({Cbz-βAla}-Cys(Bn)-Cys(Trt)-OMe; configuration not given here) the T/C [13] was 93 % of control, the T/C [14] was 98 % of control and the T/C [15] was 97 % of control. For the same compound, the T/C [16] was 100 % of control and the T/C (dose: 800.0 mg/kg/injection, vehicle: Klucel (hydroxypropylcellulose) (HPC)) was 98 % of control.

C=C(C)[C@H]1CN[C@H](C(=O)O)[C@H]1CC(=O)O was tested, and the T/C (dose: 0.31 mg/kg/injection, vehicle: saline) was 113 % of control, the T/C (dose: 0.62 mg/kg/injection, vehicle: saline) was 103 % of control and the T/C (dose: 1.25 mg/kg/injection, vehicle: saline) was 112 % of control. For the same compound, the T/C (dose: 2.5 mg/kg/injection, vehicle: saline) was 100 % of control, the T/C (dose: 5.0 mg/kg/injection, vehicle: saline) was 112 % of control and the T/C (dose: 10.0 mg/kg/injection, vehicle: saline) was 107 % of control.

With NC(=O)NO the T/C [17] was 94 % of control, the T/C [3] was 98 % of control and the T/C [4] was 96 % of control.

In the case of O=[N+]([O-])c1c(O)c(CNCCCO)cc(CNCCCO)c1O, the T/C [18] was 100 % of control, the T/C [1] was 113 % of control and the T/C [2] was 102 % of control.

For CC1=C(O)C(=O)[C@@H]2O[C@@H]2C1=O, the T/C (dose: 0.78 mg/kg/injection, vehicle: saline) was 94 % of control and 107 % of control, the T/C (dose: 1.56 mg/kg/injection, vehicle: saline) was 89 % of control and 103 % of control and the T/C (dose: 3.12 mg/kg/injection, vehicle: saline) was 92 % of control and 104 % of control. The T/C [18] was 95 % of control and 104 % of control and the T/C [1] was 100 % of control and 101 % of control.

For NC(=O)CC(N)C(=O)O (configuration not stated), the T/C (dose: 50.0 mg/kg/injection, vehicle: other) was 95 % of control, the T/C [7] was 102 % of control and the T/C (dose: 100.0 mg/kg/injection, vehicle: other) was 110 % of control. For the same compound, the T/C [8] was 96 % of control, the T/C (dose: 200.0 mg/kg/injection, vehicle: other) was 97 % of control and the T/C [9] was 96 % of control. For the same compound, the T/C (dose: 400.0 mg/kg/injection, vehicle: other) was 92 % of control, the T/C [10] was 97 % of control and the T/C (dose: 800.0 mg/kg/injection, vehicle: other) was 104 % of control. For the same compound, the T/C (dose: 800.0 mg/kg/injection, vehicle: saline with Tween-80) was 100 % of control, the T/C (dose: 1600.0 mg/kg/injection, vehicle: other) was 99 % of control and the T/C (dose: 1600.0 mg/kg/injection, vehicle: saline with Tween-80) was 96 % of control.

C[C@]12C=CC(=O)C=C1CC[C@@H]1[C@@H]2[C@@H](O)C[C@@]2(C)[C@H]1CC[C@]2(O)C(=O)CO was tested, and the T/C [19] was 107 % of control, the T/C [13] was 118 % of control and the T/C [14] was 107 % of control. The T/C [15] was 118 % of control and the T/C [16] was 107 % of control.

In the case of C=C(C)[C@@H]1CCc2c(O)c(O)c(=O)cc(C)c2C1, the T/C (dose: 3.12 mg/kg/injection, vehicle: Klucel (hydroxypropylcellulose) (HPC)) was 90 % of control, the T/C (dose: 6.25 mg/kg/injection, vehicle: Klucel (hydroxypropylcellulose) (HPC)) was 92 % of control and the T/C [19] was 102 % of control. The T/C [13] was 97 % of control and the T/C [14] was 90 % of control.

With OCCCN1CCCCC1CO (configuration not stated) the T/C [20] was 96 % of control and the T/C [21] was 97 % of control.

In the case of C[Si](C)(CCl)N[Si](C)(C)CCl, the T/C [6] was 104 % of control, the T/C [7] was 99 % of control and the T/C [8] was 107 % of control. The T/C [10] was 105 % of control.

In the case of CC(Oc1ccccc1-c1ccccc1)C(=O)N(C)C (configuration not stated), the T/C [5] was 106 % of control, the T/C [6] was 110 % of control and the T/C [7] was 107 % of control. The T/C [8] was 96 % of control, the T/C [9] was 101 % of control and the T/C [10] was 100 % of control.

O=C(O)CP(=O)(O)O was tested, and the T/C [1] was 94 % of control, the T/C [2] was 97 % of control and the T/C [17] was 97 % of control. For the same compound, the T/C [3] was 95 % of control, the T/C [4] was 92 % of control and the T/C [20] was 94 % of control. The T/C [21] was 94 % of control.

Nc1nc2ccc(NCc3ccc(C(=O)NC(CCC(=O)O)C(=O)O)cc3)cc2c(=O)[nH]1 (configuration not stated) was tested, and the T/C [12] was 111 % of control, the T/C [5] was 97 % of control and the T/C [6] was 100 % of control. The T/C [7] was 116 % of control and the T/C [8] was 119 % of control.

For C/C=C/C=C1/OC(C)=C(C(C)=O)C1=O, the T/C [5] was 123 % of control, the T/C [6] was 108 % of control and the T/C [7] was 93 % of control. For the same compound, the T/C [8] was 103 % of control.

With Cc1cc(O)c2c(c1O)C(=O)C13C(=C2O)C(=O)C2C(O)C1C1C(O)C3C(=O)C3=C(O)c4c(O)cc(C)c(O)c4C(=O)C321 (configuration not stated) the T/C (dose: 0.78 mg/kg/injection, vehicle: saline with Tween-80) was 100 % of control, the T/C (dose: 1.56 mg/kg/injection, vehicle: saline with Tween-80) was 91 % of control and the T/C [11] was 90 % of control.

With N/C(=N\OC(=O)Nc1ccc(CSc2ccc(Cl)cc2)o1)c1ccccn1 the T/C [19] was 102 % of control, the T/C [13] was 103 % of control and the T/C [14] was 99 % of control. The T/C [15] was 99 % of control.

For C[n+]1c2cc(N)ccc2cc2ccc(N)cc21, the T/C (dose: 1.5 mg/kg/injection, vehicle: saline) was 102 % of control, the T/C (dose: 3.0 mg/kg/injection, vehicle: saline) was 95 % of control and the T/C (dose: 6.0 mg/kg/injection, vehicle: saline) was 107 % of control. The T/C (dose: 12.0 mg/kg/injection, vehicle: saline) was 90 % of control.

With COc1cc2cc3cc4cc(OC)c(OC)cc4c(C)[n+]3cc2cc1OC (tested in a mixture with another compound) the T/C [1] was 112 % of control, the T/C [2] was 106 % of control and the T/C [17] was 117 % of control. The T/C [3] was 120 % of control.

With c1cc[c]([Sn]([NH]c2ncnc3[nH]cnc23)([NH]c2ncnc3[nH]cnc23)[c]2ccccc2)cc1 the T/C [1] was 103 % of control, the T/C [2] was 95 % of control and the T/C [17] was 106 % of control. For the same compound, the T/C [3] was 107 % of control and the T/C [4] was 98 % of control.

In the case of CCNC(=O)[B-][N+](C)(C)C, the T/C (dose: 12.5 mg/kg/injection, vehicle: Klucel (hydroxypropylcellulose) (HPC)) was 98 % of control, the T/C [19] was 103 % of control and the T/C [13] was 100 % of control. The T/C [14] was 106 % of control.

In the case of CC(=O)N(C)c1ccc(Nc2cc(C)[nH]c3ccc4ncnc4c23)cc1, the T/C [18] was 100 % of control, the T/C [1] was 100 % of control and the T/C [2] was 105 % of control. The T/C [17] was 102 % of control.

COCCCNC1=C(C#N)C(=O)NC(c2cccc([N+](=O)[O-])c2)S1 (configuration not stated) was tested, and the T/C [5] was 111 % of control, the T/C [6] was 93 % of control and the T/C [7] was 96 % of control. The T/C [8] was 104 % of control, the T/C [9] was 93 % of control and the T/C [10] was 98 % of control.

COC1=C(C)C(=O)C2=C(C1=O)C1C3CC4=C(C(=O)C(OC)=C(C)C4=O)C(CNC(=O)C(C)=O)N3C(C#N)C(C2)N1C (configuration not stated) was tested, and the T/C (dose: 0.12 mg/kg/injection, vehicle: Klucel (hydroxypropylcellulose) (HPC)) was 101 % of control, the T/C (dose: 0.25 mg/kg/injection, vehicle: Klucel (hydroxypropylcellulose) (HPC)) was 108 % of control and the T/C (dose: 0.5 mg/kg/injection, vehicle: Klucel (hydroxypropylcellulose) (HPC)) was 107 % of control. The T/C (dose: 1.0 mg/kg/injection, vehicle: Klucel (hydroxypropylcellulose) (HPC)) was 113 % of control.
